ChEMBL document CHEMBL1921749, “5-Lipoxygenase-activating protein (FLAP) inhibitors. Part 4: development of 3-[3-tert-butylsulfanyl-1-[4-(6-ethoxypyridin-3-yl)benzyl]-5-(5-methylpyridin-2-ylmethoxy)-1H-indol-2-yl]-2,2-dimethylpropionic acid (AM803), a potent, oral, once daily FLAP inhibitor” (J Med Chem, 2011)
pIC50: −log10 of the molar value.

Columns and labels:
[1] = target: T1, Arachidonate 5-lipoxygenase-activating protein (Homo sapiens, UniProt P20292); experiment: Inhibition of FLAP in human peripheral leukocytes assessed as inhibition of calcium ionophore A23187-induced LTB4 production after 1 hr by ELISA in absence of human serum albumin; format: cell-based
T1 sequence (P20292 whole entry): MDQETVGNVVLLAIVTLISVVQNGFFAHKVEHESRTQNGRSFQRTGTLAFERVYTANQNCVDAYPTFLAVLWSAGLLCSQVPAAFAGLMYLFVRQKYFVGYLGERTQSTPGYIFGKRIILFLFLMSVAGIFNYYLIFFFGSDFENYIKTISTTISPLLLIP

Cytochrome P450 2D6 = Cytochrome P450 2D6 (Homo sapiens, UniProt P10635); experiment: Inhibition of human CYP2D6; format: ADME
Cytochrome P450 2D6, sequence (P10635 whole entry): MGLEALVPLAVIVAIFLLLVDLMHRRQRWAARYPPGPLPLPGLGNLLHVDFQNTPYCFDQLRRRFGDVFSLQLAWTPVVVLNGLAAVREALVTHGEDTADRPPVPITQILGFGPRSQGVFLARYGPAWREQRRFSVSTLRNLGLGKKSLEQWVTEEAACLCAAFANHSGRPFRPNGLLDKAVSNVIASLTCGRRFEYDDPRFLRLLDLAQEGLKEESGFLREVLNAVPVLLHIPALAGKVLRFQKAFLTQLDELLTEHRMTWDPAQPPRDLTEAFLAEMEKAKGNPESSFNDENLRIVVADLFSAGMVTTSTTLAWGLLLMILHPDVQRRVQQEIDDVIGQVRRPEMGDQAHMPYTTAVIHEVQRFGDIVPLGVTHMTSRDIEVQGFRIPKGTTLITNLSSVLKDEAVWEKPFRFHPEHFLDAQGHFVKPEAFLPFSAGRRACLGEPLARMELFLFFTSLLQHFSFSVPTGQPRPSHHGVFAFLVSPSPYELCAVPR

[2] = Plasma concentration in rat at 3 mg/kg, po after 4 hrs; format: ADME, organism-based; parameters: dose 3 mg/kg, route oral
[3] = target: T2, Leukotriene A-4 hydrolase (Homo sapiens, UniProt P09960); experiment: Inhibition of LTA4 […]
T2 sequence (P09960 whole entry): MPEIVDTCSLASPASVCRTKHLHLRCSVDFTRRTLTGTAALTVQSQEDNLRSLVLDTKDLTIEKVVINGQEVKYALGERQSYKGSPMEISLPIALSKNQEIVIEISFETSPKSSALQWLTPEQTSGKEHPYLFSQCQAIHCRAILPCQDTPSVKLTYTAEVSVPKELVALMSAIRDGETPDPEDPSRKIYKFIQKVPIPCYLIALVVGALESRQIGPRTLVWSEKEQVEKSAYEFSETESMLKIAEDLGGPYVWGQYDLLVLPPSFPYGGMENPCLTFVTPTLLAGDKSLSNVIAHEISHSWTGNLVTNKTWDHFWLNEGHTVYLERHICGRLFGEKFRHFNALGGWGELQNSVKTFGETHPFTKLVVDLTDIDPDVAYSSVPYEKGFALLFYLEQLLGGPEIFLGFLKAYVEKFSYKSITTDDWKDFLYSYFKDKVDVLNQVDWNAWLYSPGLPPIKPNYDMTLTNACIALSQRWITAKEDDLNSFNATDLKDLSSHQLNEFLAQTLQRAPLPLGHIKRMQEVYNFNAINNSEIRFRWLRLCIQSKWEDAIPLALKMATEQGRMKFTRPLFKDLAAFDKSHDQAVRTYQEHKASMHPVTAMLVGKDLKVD

[4] = Half life in Beagle dog at 2 mg/kg, iv; format: ADME, organism-based, Canis lupus familiaris; parameters: dose 2 mg/kg, route intravenous; conditions: in vivo
[5] = target: T1, Arachidonate 5-lipoxygenase-activating protein; experiment: Inhibition of FLAP in human whole blood assessed as inhibition of calcium ionophore A23187-induced LTB4 production preincubated for 15 mins by ELISA
[6] = target: T1, Arachidonate 5-lipoxygenase-activating protein; experiment: Inhibition of FLAP in human peripheral leukocytes assessed as inhibition of calcium ionophore A23187-induced LTB4 production after 10 mins by ELISA; format: cell-based
Rattus norvegicus = experiment: Antiinflammatory activity in rat assessed as inhibition of calcium ionophore A23187-induced LTB4 production in bronchoalveolar lavage fluid at 3 mg/kg, po administered 16 hrs prior to A23187 challenge; format: functional, Lung; parameters: scale not given: the % may be the effect or the level left
[7] = Plasma protein binding in rat; format: ADME, cell-free; conditions: read-out: PPB (converted)
[8] = Plasma concentration in rat at 3 mg/kg, po after 16 hrs; format: ADME, organism-based; parameters: dose 3 mg/kg, route oral
Cytochrome P450 2C9 = Cytochrome P450 2C9 (Homo sapiens, UniProt P11712); experiment: Inhibition of human CYP2C9; format: ADME
Cytochrome P450 2C9, sequence (P11712 whole entry): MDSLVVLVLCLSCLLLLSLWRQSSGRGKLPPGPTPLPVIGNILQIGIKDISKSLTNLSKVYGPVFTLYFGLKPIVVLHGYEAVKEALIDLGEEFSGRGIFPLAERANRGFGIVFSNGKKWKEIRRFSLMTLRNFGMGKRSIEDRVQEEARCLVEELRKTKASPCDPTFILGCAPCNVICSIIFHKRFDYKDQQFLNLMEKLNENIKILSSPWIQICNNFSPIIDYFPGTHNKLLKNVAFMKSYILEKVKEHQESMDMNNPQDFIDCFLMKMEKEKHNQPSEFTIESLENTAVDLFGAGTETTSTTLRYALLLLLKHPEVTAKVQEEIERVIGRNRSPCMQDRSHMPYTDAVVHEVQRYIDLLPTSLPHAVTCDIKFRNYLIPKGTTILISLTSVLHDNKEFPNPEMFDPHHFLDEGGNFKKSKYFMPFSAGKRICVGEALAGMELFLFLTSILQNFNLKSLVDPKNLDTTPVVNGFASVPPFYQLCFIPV

[9] = target: T3, Prostaglandin G/H synthase 2 (Homo sapiens, UniProt P35354); experiment: Inhibition of COX2-mediated PGE2 production in human whole blood assay
T3 sequence (P35354 whole entry): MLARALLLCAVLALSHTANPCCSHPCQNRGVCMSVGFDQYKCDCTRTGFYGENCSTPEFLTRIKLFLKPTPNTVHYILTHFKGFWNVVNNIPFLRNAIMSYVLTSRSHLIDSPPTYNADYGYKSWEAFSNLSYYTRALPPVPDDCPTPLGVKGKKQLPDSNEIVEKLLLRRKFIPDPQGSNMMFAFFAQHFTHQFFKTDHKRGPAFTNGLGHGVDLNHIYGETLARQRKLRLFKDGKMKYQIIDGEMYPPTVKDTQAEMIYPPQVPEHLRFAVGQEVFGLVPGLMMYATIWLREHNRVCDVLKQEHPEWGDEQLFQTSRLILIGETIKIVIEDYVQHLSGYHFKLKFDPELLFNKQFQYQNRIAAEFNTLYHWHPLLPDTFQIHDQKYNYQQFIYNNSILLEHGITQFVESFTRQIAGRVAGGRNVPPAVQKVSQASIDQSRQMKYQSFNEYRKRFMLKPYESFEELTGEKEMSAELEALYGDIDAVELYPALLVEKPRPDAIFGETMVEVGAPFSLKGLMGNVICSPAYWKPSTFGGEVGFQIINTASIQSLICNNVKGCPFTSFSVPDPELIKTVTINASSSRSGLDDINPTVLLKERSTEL

[10] = target: T4, Arachidonate 5-lipoxygenase-activating protein (Rattus norvegicus, UniProt P20291); experiment: Inhibition of FLAP in rat whole blood assessed as inhibition of calcium ionophore A23187-induced LTB4 production preincubated for 15 mins by ELISA; format: tissue-based
T4 sequence (P20291 whole entry): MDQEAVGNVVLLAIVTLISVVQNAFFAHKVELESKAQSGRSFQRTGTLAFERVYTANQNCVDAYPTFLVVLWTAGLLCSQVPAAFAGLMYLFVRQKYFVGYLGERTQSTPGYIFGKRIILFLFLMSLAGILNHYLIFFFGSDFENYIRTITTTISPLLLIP

Cytochrome P450 1A2 = target: T5, Cytochrome P450 1A2 (Homo sapiens, UniProt P05177); experiment: Inhibition of human CYP1A2; format: ADME
T5 sequence (P05177 whole entry): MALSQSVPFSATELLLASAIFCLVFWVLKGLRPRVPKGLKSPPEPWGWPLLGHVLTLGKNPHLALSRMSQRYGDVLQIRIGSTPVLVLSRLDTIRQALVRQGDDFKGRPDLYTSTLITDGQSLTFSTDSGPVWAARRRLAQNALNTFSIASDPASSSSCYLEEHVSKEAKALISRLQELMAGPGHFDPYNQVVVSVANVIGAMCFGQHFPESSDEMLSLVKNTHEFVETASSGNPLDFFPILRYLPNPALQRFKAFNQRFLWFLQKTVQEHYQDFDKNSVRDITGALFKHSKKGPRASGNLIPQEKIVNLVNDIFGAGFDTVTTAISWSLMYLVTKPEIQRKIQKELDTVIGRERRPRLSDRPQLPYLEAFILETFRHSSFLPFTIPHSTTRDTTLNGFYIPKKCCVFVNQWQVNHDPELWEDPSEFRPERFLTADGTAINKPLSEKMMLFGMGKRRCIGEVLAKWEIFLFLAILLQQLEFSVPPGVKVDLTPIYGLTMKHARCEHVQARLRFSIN

[11] = Oral bioavailability in Beagle dog at 5 mg/kg; format: ADME, organism-based, Canis lupus familiaris; conditions: in vivo
Cytochrome P450 2C19 = Cytochrome P450 2C19 (Homo sapiens, UniProt P33261); experiment: Inhibition of human CYP2C19; format: ADME
Cytochrome P450 2C19, sequence (P33261 whole entry): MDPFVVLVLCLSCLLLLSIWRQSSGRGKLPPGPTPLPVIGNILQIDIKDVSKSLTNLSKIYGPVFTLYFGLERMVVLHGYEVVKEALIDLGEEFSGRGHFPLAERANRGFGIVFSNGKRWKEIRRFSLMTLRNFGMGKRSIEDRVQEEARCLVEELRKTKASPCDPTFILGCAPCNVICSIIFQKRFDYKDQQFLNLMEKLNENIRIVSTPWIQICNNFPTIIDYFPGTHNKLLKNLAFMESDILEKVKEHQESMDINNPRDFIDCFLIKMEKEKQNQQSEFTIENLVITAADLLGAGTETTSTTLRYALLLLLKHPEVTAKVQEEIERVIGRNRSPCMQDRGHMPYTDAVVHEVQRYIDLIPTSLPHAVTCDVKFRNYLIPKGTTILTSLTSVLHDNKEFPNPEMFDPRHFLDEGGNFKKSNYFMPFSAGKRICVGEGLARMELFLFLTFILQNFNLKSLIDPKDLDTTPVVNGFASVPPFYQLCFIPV

[12] = Clearance in Beagle dog at 2 mg/kg, iv; format: ADME, organism-based, Canis lupus familiaris; parameters: dose 2 mg/kg, route intravenous; conditions: in vivo

Structure (SMILES): CCOc1ccc(-c2ccc(Cn3c(CC(C)(C)C(=O)O)c(SC(C)(C)C)c4cc(OCc5ccc(C)cn5)ccc43)cc2)cn1 [FIBOFLAPON]
- pIC50 [1]: 9.00
- pIC50 (Cytochrome P450 2D6): < 4.40
- concentration at 4 h [2]: 1000 nM
- pIC50 [3]: < 4.00
- half-life [4]: 13 h
- pIC50 [5]: 6.30
- pIC50 [6]: 9.15
- Activity (Rattus norvegicus): 86%
- fraction unbound [7]: 0.002
- concentration at 16 h [8]: 3 nM
- pIC50 (Cytochrome P450 2C9): < 4.30
- pIC50 [9]: < 4.00
- pIC50 [10]: 6.62
- pIC50 (Cytochrome P450 1A2): < 4.40
- bioavailability [11]: 51%
- pIC50 (Cytochrome P450 2C19): < 4.40
- clearance [12]: 0.6 mL/min/kg
